The values below come from ChEMBL document CHEMBL1153138, “2,4-Diaminopyrimidine MK2 inhibitors. Part II: Structure-based inhibitor optimization” (Bioorg Med Chem Lett, 2010).

What all share (parameters): dose 3 mg/kg, route intravenous
Common to all, as to settings: in vivo

Series [1] deals with Rattus norvegicus. The experiment in a line: Half life in Sprague-Dawley rat at 3 mg/kg, iv. Type of series: ADME, organism-based.
Series [2] concerns Rattus norvegicus. The experiment in a line: Terminal Phase volume of distribution at steady state in Sprague-Dawley rat at 3 mg/kg, iv. Type of series: ADME, organism-based.
Series [3] relates to Rattus norvegicus. The experiment in a line: AUC in Sprague-Dawley rat at 3 mg/kg, iv. Format: ADME, organism-based, Plasma.
The subject of series [4] is Rattus norvegicus. The experiment in a line: Clearance in Sprague-Dawley rat at 3 mg/kg, iv. Format: ADME, organism-based.

In the case of `NCCCn1cc(-c2cc(-c3cc4ccccc4s3)c3[nH]ncc3c2)c2nc(N)ncc21`, the t1/2 in series [1] was found to be 5.5 h. For the same molecule, in series [2], the Vbeta was determined as 4 L/kg. The AUC (commonly concentration integrated over time) in series [3] amounted to 4200 ng·h/mL. The molecule further came in with a CL in series [4] of 28.3 mL/min/kg.
